Experimental data reported in patent US8470805B2, “Processes for preparing piperazinium salts of KMUP and use thereof” (Kaohsiung Medical University, priority 2009, dated 2013).

Columns and labels:
C57BL/6J mice [1] = assay: The lipid-lowering effect in C57BL/6J mice (high-fat diet); format: in vivo; settings: HFD, after 21 days
Protocol: (§1) 8-week C57BL/6J mice are divided into standard diet (STD) group and the high-fat diet (HFD) group. In the HFD group, the KMUP-1 HCl salt (1, 2.5 and 5 mg/kg), the simvastatin (5 mg/kg), the KMUP-1-Nicotinic acid complex (1 and 5 mg/kg), the KMUP-1-Simvastatinic acid complex (1 and 5 mg/kg), KMUP-1-Gemfibrozil complex (2.5 mg/kg), KMUP-1-Fibric acid complex (2.5 mg/kg), KMUP-1-γ-polyglutamic acid complex (2.5 mg/kg) and KMUP-1-Citric acid complex (2.5 mg/kg) are administered orally. After 21 days, the amounts (mg/dl) of the triglyceride (TG), the total cholesterol (tot.-C), the high density lipoprotein cholesterol (HDL-C), the low density lipoprotein cholesterol (LDL-C) and the serum glucose of six mice for each group are measured as shown in Tables 2 and 3.

C57BL/6J mice [2] = assay: The amount of the serum glucose and insulin in C57BL/6J mice (high-fat diet); format: in vivo; settings: 1 mg/kg orally, HFD, after 21 days
Protocol: as §1

[3] = system: STZ-induced diabetic rats; assay: Serum glucose and body weight in streptozosin (STZ)-induced diabetic rats; format: in vivo; settings: after 21 days
Protocol: 2. The effect of KMUP-1 on decreasing the amount of the serum glucose in streptozosin (STZ)-induced diabetic rats
60 mg/kg of streptozosin is injected intravenously for inducing the STZ-induced rats, and the KMUP-1 HCl salt (0.5, 1.5, 2.5 and 5 mg/kg) and KMUP-1-Simvastatinic acid (5 mg/kg) are administered orally. After 21 days, the amount of the serum glucose (mg/dl), the amount of the serum insulin (mg/dl), the body weight (g) and the change of the body weight are measured.

[4] = system: STZ-induced diabetic rats; assay: Change of insulin and fasting blood glucose after administration, STZ-induced diabetic rats; format: in vivo
Protocol: Nateglinide, repaglinide or the placebo is administered on day 1 before one hour of the breakfast, and the KMUP-1/KMUP-1-Nateglinide or KMUP-1-Repaglinide are orally administered at 1, 2, 3, 4, 5 and 6 hrs respectively. The amount of the serum glucose (mg/dl), the amount of the serum insulin (mg/dl), the body weight (g) and the change of the body weight are measured.

[5] = system: U46619-induced platelet aggregation; assay: Antiplatelet aggregation activity (U46619-induced, turbidity, Lumi-aggregometer); format: cell-based; settings: 20 μM, rabbit platelets, n=8
Protocol: 4. […] After centrifuging at […] for 10 mins, the supernatant is platelet-rich plasma (PRP). The platelet suspension is obtained from EDTA-anticoagulated PRP, and the platelet granules are finally suspended in the Tyrode's solution. […] The turbidity is measured at 37° C. by Lumi-aggregometer connected with two dual channel recorders as the aggregation.

[6] = system: monocrotaline (MCT)-treated rats; assay: Pulmonary artery blood pressure in monocrotaline (MCT)-treated rats; format: in vivo, male Wistar rats; settings: 2.5 mg/kg/day p.o.
Protocol: 5. the monocrotaline (MCT)-treated rats show the […] pulmonary aterial hypertension
Pulmonary aterial hypertension in MCT-treated rats is caused on day 21 after the intraperitoneal injection. Orally administered KMUP-1 HCl salt (2.5 mg/kg), simvastatin (2.5 mg/kg), KMUP-1-nicotinic acid complex (2.5 mg/kg), KMUP-1-Citric acid complex (2.5 mg/kg), KMUP-1-Simvastatinic acid complex (2.5 mg/kg) and KMUP-1-γ-Polyglutamic acid complex (2.5 mg/kg), or the inhalated KMUP-1-PGI2 (0.1 mM) every day may inhibit the male Wistar rats treated with MCT, which show the effect of decreasing the pulmonary artery blood pressure (PABP).

TGF-β = assay: Bleomycin-induced lung fibrosis in mice, TGF-β expression by EIA; format: in vivo; settings: 2.5 mg/kg orally, bleomycin 60 mg/kg
Protocol: 6. KMUP-1 salts inhibit the lung fibrosis in mice induced by bleomycin (BM) mediated via transforming growth factor beta (TGF-β) expression in lung The increased amount of the synthetic collagen and the generation of the macrophage in alveolus may facilitate the formulation of TGF-β, and the expression of TGF-β is looked as a biomarker of the lung fibrosis. […] The state of the TGF-β expression in the irrigation solution is measured by the enzyme immunoassay (EIA).

[7] = system: testosterone-induced mice; assay: Prostate hypertrophy (BPH) in testosterone-induced mice; format: in vivo; settings: 2.5 mg/kg, testosterone 3 mg/kg/day for 4 weeks, day 28, n=6
Protocol: The testosterone (TS, 3 mg/kg/day) is administered for 4 weeks for inducing BPH in mice, which combines with KMUP-1 HCl salt (2.5 mg/kg), KMUP-1-Citric acid (2.5 mg/kg) and KMUP-1-Nicotinic acid (2.5 mg/kg), and the ratio of hypertrophy (g)/body weight (g) is measured at day 28 (n=6).

H1N1 virus = format: cell-based; settings: MDCK culture infected with H1N1 virus
L1210 leukemia cell line = assay: Cytotoxicity to cancer cells, MTT assay; format: cell-based; settings: 3 days, n=6
Protocol: The methotrexate (MTX) is served as the positive control group. Briefly, the cancer cells (5000-10000 cells/ml) is added together with the compounds to be tested into each well of 96-well plate. After culturing for 3 days, the attached cells are cultured in MTT (0.5 mg/ml) for one hour, followed by dissolving the formazan crystal with dimethyl sulfoxide (DMSO). The absorption at 550 nm wave length is measured by the enzyme linked immunosorbent assay (ELISA) reader. IC50 is the concentration of the tested compound for inhibiting 50% cell growth under the experimental conditions.

RAW 264.7 cells = assay: Inhibition of RANKL-induced osteoclast differentiation (TRAP staining); format: cell-based; settings: 5 μM, RANKL 10 μg/ml, 5 days, n=5

Structure (SMILES): Cl.Cn1c(=O)c2c(ncn2CCN2CCN(c3ccccc3Cl)CC2)n(C)c1=O [KMUP-1 HCl salt, 7-[2-[4-(2-chlorobenzene)piperazinyl]ethyl]-1,3-dimethyl xanthine HCl]
- HDL-C (C57BL/6J mice [1]; 2.5 mg/kg orally): 103.55 ± 4.2 mg/dL
- LDL-C (C57BL/6J mice [1]; 2.5 mg/kg orally): 14.17 ± 1.4 mg/dL
- TG (C57BL/6J mice [1]; 2.5 mg/kg orally): 74.5 ± 5.1 mg/dL
- tot.-C (C57BL/6J mice [1]; 2.5 mg/kg orally): 133 ± 5.1 mg/dL
- HDL-C (C57BL/6J mice [1]; 5 mg/kg orally): 118.32 ± 5.7 mg/dL
- LDL-C (C57BL/6J mice [1]; 5 mg/kg orally): 14.2 ± 2.2 mg/dL
- TG (C57BL/6J mice [1]; 5 mg/kg orally): 72.67 ± 4.7 mg/dL
- tot.-C (C57BL/6J mice [1]; 5 mg/kg orally): 125.5 ± 9.8 mg/dL
- The amount of serum glucose (C57BL/6J mice [2]): 120.4 ± 4.2 mg/dL
- The amount of the serum glucose ([3]; 0.5 mg/kg orally): 215.4 ± 19.6 mg/dL
- The amount of the serum glucose ([3]; 1.5 mg/kg orally): 215.4 ± 23.8 mg/dL
- The amount of the serum glucose ([3]; 2.5 mg/kg orally): 210.4 ± 15.7 mg/dL
- The amount of the serum glucose ([3]; 5 mg/kg orally): 200.2 ± 14.2 mg/dL
- The change of the fasting blood glucose after administration ([4]; 1 mg/kg, 1 hr): 3.7 ± 0.6 mg/dL
- The change of the insulin after administration ([4]; 1 mg/kg, 1 hr): 10.1 ± 1.8 U/mL
- The change of the fasting blood glucose after administration ([4]; 1 mg/kg, 2 hr): 2.3 ± 0.7 mg/dL
- The change of the insulin after administration ([4]; 1 mg/kg, 2 hr): 16.4 ± 2.2 U/mL
- The change of the insulin after administration ([4]; 1 mg/kg, 3 hr): 12.6 ± 2.4 U/mL
- The change of the insulin after administration ([4]; 1 mg/kg, 4 hr): 6.7 ± 2.4 U/mL
- The change of the fasting blood glucose after administration ([4]; 1 mg/kg, 6 hr): 0.1 ± 0.5 mg/dL
- The change of the insulin after administration ([4]; 1 mg/kg, 6 hr): 1.8 ± 0.7 U/mL
- The change of the fasting blood glucose after administration ([4]; 2 mg/kg, 1 hr): 4.3 ± 0.4 mg/dL
- The change of the insulin after administration ([4]; 2 mg/kg, 1 hr): 26.4 ± 1.3 U/mL
- The change of the fasting blood glucose after administration ([4]; 2 mg/kg, 2 hr): 2.5 ± 0.2 mg/dL
- The change of the insulin after administration ([4]; 2 mg/kg, 2 hr): 30.6 ± 4.6 U/mL
- The change of the insulin after administration ([4]; 2 mg/kg, 3 hr): 13.8 ± 3.6 U/mL
- The change of the insulin after administration ([4]; 2 mg/kg, 4 hr): 9.5 ± 1.7 U/mL
- The change of the fasting blood glucose after administration ([4]; 2 mg/kg, 6 hr): 0.3 ± 0.7 mg/dL
- The change of the insulin after administration ([4]; 2 mg/kg, 6 hr): 4.6 ± 0.8 U/mL
- The change of the fasting blood glucose after administration ([4]; 3 mg/kg, 1 hr): 5.2 ± 0.9 mg/dL
- The change of the insulin after administration ([4]; 3 mg/kg, 1 hr): 38.2 ± 3.8 U/mL
- The change of the fasting blood glucose after administration ([4]; 3 mg/kg, 2 hr): 1.7 ± 0.1 mg/dL
- The change of the insulin after administration ([4]; 3 mg/kg, 2 hr): 32.6 ± 6.4 U/mL
- The change of the insulin after administration ([4]; 3 mg/kg, 3 hr): 21.4 ± 2.6 U/mL
- The change of the insulin after administration ([4]; 3 mg/kg, 4 hr): 18.4 ± 2.4 U/mL
- The change of the fasting blood glucose after administration ([4]; 3 mg/kg, 6 hr): -0.1 ± 0.3 mg/dL
- The change of the insulin after administration ([4]; 3 mg/kg, 6 hr): 7.4 ± 3.6 U/mL
- The change of the fasting blood glucose after administration ([4]; 4 mg/kg, 1 hr): 5.7 ± 0.8 mg/dL
- The change of the insulin after administration ([4]; 4 mg/kg, 1 hr): 37.4 ± 3.6 U/mL
- The change of the fasting blood glucose after administration ([4]; 4 mg/kg, 2 hr): 1.5 ± 0.2 mg/dL
- The change of the insulin after administration ([4]; 4 mg/kg, 2 hr): 47.3 ± 2.3 U/mL
- The change of the insulin after administration ([4]; 4 mg/kg, 3 hr): 27.8 ± 2.8 U/mL
- The change of the insulin after administration ([4]; 4 mg/kg, 4 hr): 14.8 ± 3.7 U/mL
- The change of the fasting blood glucose after administration ([4]; 4 mg/kg, 6 hr): -0.3 ± 0.1 mg/dL
- The change of the insulin after administration ([4]; 4 mg/kg, 6 hr): 2.8 ± 0.5 U/mL
- The ratio of the antiplatelet aggregation [5]: 89 ± 3.4 %
- PABP [6]: 13 ± 1.7 mmHg
- Changing % of the lung TGF-β (TGF-β): 52 ± 5.2 %
- hypertrophy (g)/body weight (g) [7]: 0.21 ± 0.04
- growth of the virus (in words) (H1N1 virus; in glucose solution): can inhibit the growth of the virus
- IC50 (H1N1 virus; n=6): 5.2 µg/mL
- IC50 (L1210 leukemia cell line): 26 nM
- TRAP-Positive Cells (RAW 264.7 cells): 80 ± 6

Structure (SMILES): Cn1c(=O)c2c(ncn2CCN2CCN(c3ccccc3Cl)CC2)n(C)c1=O.O=C(O)CC(O)(CC(=O)O)C(=O)O [KMUP-1-Citric acid, KMUP-1-Citric acid salt]
- HDL-C (C57BL/6J mice [1]; 2.5 mg/kg orally): 108.4 ± 1.3 mg/dL
- LDL-C (C57BL/6J mice [1]; 2.5 mg/kg orally): 16.4 ± 1.7 mg/dL
- TG (C57BL/6J mice [1]; 2.5 mg/kg orally): 83.2 ± 5.3 mg/dL
- tot.-C (C57BL/6J mice [1]; 2.5 mg/kg orally): 129.7 ± 1.6 mg/dL
- The ratio of the antiplatelet aggregation [5]: 78 ± 2.7 %
- PABP [6]: 16 ± 1.8 mmHg
- hypertrophy (g)/body weight (g) [7]: 0.23 ± 0.05

Structure (SMILES): CN(Cc1cnc2nc(N)nc(N)c2n1)c1ccc(C(=O)N[C@@H](CCC(=O)O)C(=O)O)cc1.Cn1c(=O)c2c(ncn2CCN2CCN(c3ccccc3Cl)CC2)n(C)c1=O [KMUP-1-MTX, KMUP-1-Methotrexate (MTX) Complex]
- IC50 (L1210 leukemia cell line): 20 nM

Structure (SMILES): CN(Cc1cnc2nc(N)nc(N)c2n1)c1ccc(C(=O)N[C@@H](CCC(=O)O)C(=O)O)cc1 [MTX, methotrexate, reference compound]
- IC50 (L1210 leukemia cell line; Mus musculus, 72 h): 12 nM
